# Measured values as given in patent US6281214A, “Biphenyl derivatives” (Eisai Co., Ltd, priority 1994, dated 2001).
# Structures can show the parent of a compound that is named as a salt.
# Molecular target: T1, serotonin S2 receptor (Rattus norvegicus, UniProt P14842)
# T1 construct: The receptor fraction prepared from the cortex was molten and suspended; from tissue; host or cells: cerebral cortex of SD rats (membrane fraction)
# Experiment: serotonin S2 receptor binding test ([3H] Ketanserin Binding Test)
# Design: species or system SD rats
# Conditions: 1 nM [3H] Ketanserin, rat cortex, 37° C., 15 minutes
# Method in brief: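 Ki values came from probit IC50s corrected for radioligand concentration and Kd (Scatchard). Binding used 1 nM [3H]ketanserin with SD rat cortex membrane fractions, 15 min at 37 °C in Tris-HCl pH 7.4. Bound radioactivity was measured after GF/B filtration, with methysergide for nonspecific binding.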
# T1 sequence (P14842 whole entry): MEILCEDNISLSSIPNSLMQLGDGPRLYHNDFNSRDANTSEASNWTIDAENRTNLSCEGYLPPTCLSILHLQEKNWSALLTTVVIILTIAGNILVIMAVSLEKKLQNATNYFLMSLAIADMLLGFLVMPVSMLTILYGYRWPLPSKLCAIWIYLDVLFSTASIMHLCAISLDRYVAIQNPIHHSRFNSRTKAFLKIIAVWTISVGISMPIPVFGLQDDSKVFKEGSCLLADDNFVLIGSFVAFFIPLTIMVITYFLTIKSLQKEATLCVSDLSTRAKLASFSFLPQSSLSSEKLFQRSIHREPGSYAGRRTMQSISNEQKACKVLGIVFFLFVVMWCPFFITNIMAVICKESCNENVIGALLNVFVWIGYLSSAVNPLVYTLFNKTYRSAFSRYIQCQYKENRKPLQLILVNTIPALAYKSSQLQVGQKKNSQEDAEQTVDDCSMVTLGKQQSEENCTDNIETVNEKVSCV
row,Structure (SMILES),Ki [nM]
1,"CCCCS(=O)(=O)Nc1cc(N2CCN(CC)CC2)cc(-c2ccccc2C)c1Cl [Example 19, 1-Ethyl-4-[3-(2-tolyl)-4-chloro-5-butanesulfonylamino]phenylpiperazine]",1.95
2,CCc1cc(N2CCN(CC)CC2)cc(-c2ccccc2)c1OC [Example 70],128
3,CCN1CCN(c2cc(-c3ccc(F)cc3)c(OC)c(S(=O)(=O)CC)c2)CC1 [Example 40],3.64
4,"CCC(C)c1cc(N2CCN(CC)CC2)cc(-c2ccccc2)c1Cl (stereo not shown) [Example 147, 1-Ethyl-4-[3-phenyl-4-chloro-5-(1-methylpropyl)]phenylpiperazine]",15.1
5,CCC(F)c1cc(N2CCN(CC)CC2)cc(-c2ccccc2C#N)c1Cl (stereo not shown) [Example 21],14.4
6,"CCN1CCN(c2cc(C(=O)OC)c(OC)c(-c3ccccc3)c2)CC1 [Example 74, 1-Ethyl-4-(3-phenyl-4-methoxy-5-methoxycarbonyl)phenylpiperazine]",374
7,CCN1CCN(c2cc(-c3ccccc3)c(OC)c(C(C)(C)O)c2)CC1 [Example 80],177
8,"CCCS(=O)(=O)Nc1cc(N2CCN(CC)CC2)cc(-c2ccccc2C)c1Cl [Example 17, 1-ethyl-4-[3-(2-tolyl)-4-chloro-5-propanesulfonylamino]phenylpiperazine hydrochloride]",374
9,"CCN1CCN(c2cc(CCl)c(OC)c(-c3ccccc3)c2)CC1 [Example 45, 1-Ethyl-4-(3-phenyl-4-methoxy-5-chloromelthy)phenylpiperazine]",192
10,"CCN1CCN(c2cc(CCCOCOC)c(OC)c(-c3ccccc3)c2)CC1 [Example 69, 1-Ethyl-4-[3-phenyl-4-methoxy-5-(3-methoxymethoxypropyl)]phenylpiperazine]",67.1

# Molecular target: T2, dopamine D2 receptor (Rattus norvegicus, UniProt P61169)
# T2 construct: the receptor fraction prepared from the corpus striatum was molten and suspended; from tissue; host or cells: corpus striatum of SD rats (membrane fraction)
# T2 sequence (P61169 whole entry): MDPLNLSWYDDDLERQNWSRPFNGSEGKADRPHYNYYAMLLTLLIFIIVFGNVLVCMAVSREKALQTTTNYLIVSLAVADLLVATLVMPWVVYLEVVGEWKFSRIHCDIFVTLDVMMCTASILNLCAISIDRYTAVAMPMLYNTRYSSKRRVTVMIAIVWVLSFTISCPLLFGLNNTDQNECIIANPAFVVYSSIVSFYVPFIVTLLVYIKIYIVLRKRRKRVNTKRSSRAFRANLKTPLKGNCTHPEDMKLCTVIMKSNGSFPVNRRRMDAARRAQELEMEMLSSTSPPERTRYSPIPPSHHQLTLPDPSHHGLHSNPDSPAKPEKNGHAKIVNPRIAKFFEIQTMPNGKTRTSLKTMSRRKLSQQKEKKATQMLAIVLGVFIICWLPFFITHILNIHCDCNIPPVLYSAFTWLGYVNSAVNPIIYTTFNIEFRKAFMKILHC
# Experiment: dopamine D2 receptor binding test ([3H] Spiperone Binding Test)
# Design: species or system SD rats
# Conditions: 1 nM [3H] Spiperone, rat corpus striatum, room temperature, 60 minutes; read-out: Ki value, dopamine D2 receptor
# Method in brief: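 Rat (SD, 6–8 weeks) corpus striatum membranes in 50 mM Krebs-Tris pH 7.4 were incubated with 1 nM [3H]spiperone at room temperature for 60 minutes, with nonspecific binding defined by excess spiperone. IC50 came from probit analysis; Ki was derived using radioligand concentration and Scatchard Kd.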
row,Structure (SMILES),Ki [nM]
1,"CCCCS(=O)(=O)Nc1cc(N2CCN(CC)CC2)cc(-c2ccccc2C)c1Cl [Example 19, 1-Ethyl-4-[3-(2-tolyl)-4-chloro-5-butanesulfonylamino]phenylpiperazine]",0.64
2,CCN1CCN(c2cc(-c3ccc(F)cc3)c(OC)c(S(=O)(=O)CC)c2)CC1 [Example 40],9.25
3,"CCC(C)c1cc(N2CCN(CC)CC2)cc(-c2ccccc2)c1Cl (stereo not shown) [Example 147, 1-Ethyl-4-[3-phenyl-4-chloro-5-(1-methylpropyl)]phenylpiperazine]",0.45
4,CCC(F)c1cc(N2CCN(CC)CC2)cc(-c2ccccc2C#N)c1Cl (stereo not shown) [Example 21],1.85
5,"CCN1CCN(c2cc(C(=O)OC)c(OC)c(-c3ccccc3)c2)CC1 [Example 74, 1-Ethyl-4-(3-phenyl-4-methoxy-5-methoxycarbonyl)phenylpiperazine]",> 1000
6,CCN1CCN(c2cc(-c3ccccc3)c(OC)c(C(C)(C)O)c2)CC1 [Example 80],810
7,"CCCS(=O)(=O)Nc1cc(N2CCN(CC)CC2)cc(-c2ccccc2C)c1Cl [Example 17, 1-ethyl-4-[3-(2-tolyl)-4-chloro-5-propanesulfonylamino]phenylpiperazine hydrochloride]",> 100
8,"CCN1CCN(c2cc(CCCOCOC)c(OC)c(-c3ccccc3)c2)CC1 [Example 69, 1-Ethyl-4-[3-phenyl-4-methoxy-5-(3-methoxymethoxypropyl)]phenylpiperazine]",171

# Same assay, conditions: Ki value, dopamine D2 receptor, 1 nM [3H] Spiperone, rat corpus striatum, room temperature, 60 minutes
row,Structure (SMILES),Ki [nM]
1,CCc1cc(N2CCN(CC)CC2)cc(-c2ccccc2)c1OC [Example 70],41.9
2,"CCN1CCN(c2cc(CCl)c(OC)c(-c3ccccc3)c2)CC1 [Example 45, 1-Ethyl-4-(3-phenyl-4-methoxy-5-chloromelthy)phenylpiperazine]",26.9

# Molecular target: adrenergic α1 receptor
# Experiment: adrenergic α1 receptor binding test ([3H] Prazosin Binding Test)
# Design: species or system SD rats
# Conditions: 1 nM [3H] Prazosin, rat cortex, room temperature, 60 minutes
# Method in brief: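 Rat (SD, 6-8 weeks) cerebral cortex membranes in 50 mM Tris-HCl pH 7.4 incubated with 1 nM [3H]prazosin for 60 min at room temperature; nonspecific binding defined with phentolamine. IC50 by probit method, converted to Ki using radioligand concentration and Scatchard-derived Kd.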
row,Structure (SMILES),Ki [nM]
1,"CCCCS(=O)(=O)Nc1cc(N2CCN(CC)CC2)cc(-c2ccccc2C)c1Cl [Example 19, 1-Ethyl-4-[3-(2-tolyl)-4-chloro-5-butanesulfonylamino]phenylpiperazine]",81.6
2,CCc1cc(N2CCN(CC)CC2)cc(-c2ccccc2)c1OC [Example 70],322
3,CCN1CCN(c2cc(-c3ccc(F)cc3)c(OC)c(S(=O)(=O)CC)c2)CC1 [Example 40],> 1000
4,"CCC(C)c1cc(N2CCN(CC)CC2)cc(-c2ccccc2)c1Cl (stereo not shown) [Example 147, 1-Ethyl-4-[3-phenyl-4-chloro-5-(1-methylpropyl)]phenylpiperazine]",33.2
5,CCC(F)c1cc(N2CCN(CC)CC2)cc(-c2ccccc2C#N)c1Cl (stereo not shown) [Example 21],418
6,"CCN1CCN(c2cc(C(=O)OC)c(OC)c(-c3ccccc3)c2)CC1 [Example 74, 1-Ethyl-4-(3-phenyl-4-methoxy-5-methoxycarbonyl)phenylpiperazine]",> 1000
7,CCN1CCN(c2cc(-c3ccccc3)c(OC)c(C(C)(C)O)c2)CC1 [Example 80],> 1000
8,"CCN1CCN(c2cc(CCl)c(OC)c(-c3ccccc3)c2)CC1 [Example 45, 1-Ethyl-4-(3-phenyl-4-methoxy-5-chloromelthy)phenylpiperazine]",183
9,"CCN1CCN(c2cc(CCCOCOC)c(OC)c(-c3ccccc3)c2)CC1 [Example 69, 1-Ethyl-4-[3-phenyl-4-methoxy-5-(3-methoxymethoxypropyl)]phenylpiperazine]",321

# Same assay, conditions: 1 nM [3H] Prazosin, rat cortex, room temperature, 60 minutes; hydrochloride
row,Structure (SMILES),Ki [nM]
1,"CCCS(=O)(=O)Nc1cc(N2CCN(CC)CC2)cc(-c2ccccc2C)c1Cl [Example 17, 1-ethyl-4-[3-(2-tolyl)-4-chloro-5-propanesulfonylamino]phenylpiperazine hydrochloride]",550

# Tested on: not given
# Experiment: not given
# Conditions: background, D2 receptor antagonists; cited from earlier work
row,Structure (SMILES),extrapyramidal syndrome as adverse reaction
1,CCN(CC)CCNC(=O)c1cc(S(C)(=O)=O)ccc1OC [Tiapride],causing extrapyramidal syndrome
2,O=C(CCCN1CCC(O)(c2ccc(Cl)cc2)CC1)c1ccc(F)cc1 [haloperidol],causing extrapyramidal syndrome

# Same assay, conditions: background, owing to high α1 blocking activity; cited from earlier work
row,Structure (SMILES),blood-pressure drop as adverse reaction
1,"Cc1nc2n(c(=O)c1CCN1CCC(c3noc4cc(F)ccc34)CC1)CCCC2 [Risperidone, risperidone]",blood-pressure drop occurs as an adverse reaction

# Same assay, conditions: background; cited from earlier work
row,Structure (SMILES),QTC interval in electrocardiogram
1,"Cc1nc2n(c(=O)c1CCN1CCC(c3noc4cc(F)ccc34)CC1)CCCC2 [Risperidone, risperidone]",lengthened to induce arrhythmia
